Laboratory results: patent publication US7030134B2, “Pyrazolopyridinyl pyridine and pyrimidine therapeutic compounds” (SmithKline Beecham Corporation, priority 2001, dated 2006)
pIC50: −log10 of the molar value. Structures can show the parent of a compound that is named as a salt.

tested on: HSV-1; test: HSV-1 replication in infected Vero 76 cells, DNA hybridization capture assay; type: cell-based, herpes simplex virus 1; settings: Human alphaherpesvirus 1, Vero 76
Method: Vero 76 cells were maintained in MEM with Earle's salts, L-glutamine, 8% FBS (Hyclone, A-1111-L) and 100 units/mL Penicillin-100 μg/mL Streptomycin. For assay conditions, FBS was reduced to 2%. Cells are seeded into 96-well tissue culture plates at a density of 5×10^4 cells/well after being incubated for 45 min at 37° C. in the presence of HSV-1 or HSV-2 (MOI=0.001). Test compounds are added to the wells and the plates are incubated at 37° C. for 40–48 hours. Cell lysates are prepared as follows: media was removed and replaced with 150 μL/well 0.2 N NaOH with 1% Igepal CA 630 or NP-40. Plates were incubated up to 14 days at room temperature in a humidified chamber to prevent evaporation.
For the detection probe, a gel-purified, digoxigenin-labeled, […] PCR fragment of the HSV UL-15 sequence was utilized. PCR conditions included 0.5 μM primers, 180 μM dTTP, 20 μM dUTP-digoxigenin (Boehringer Mannheim 1558706), 200 μM each of dATP, dCTP, and dGTP, 1×PCR Buffer II (Perkin Elmer), 2.5 mM MgCl2, 0.025 units/μL of AmpliTaq Gold polymerase (Perkin Elmer), and 5 ng of gel-purified HSV DNA per 100 μL. Extension conditions were 10 min at 95° C., followed by 30 cycles of 95° C. for 1 min, 55° C. for 30 sec, and 72° C. for 2 min. The amplification was completed with a 10-min incubation at 72° C. Primers were selected to amplify a 728 bp probe spanning a section of the HSV1 UL 15 open reading frame (nucleotides 249–977). Single-stranded transcripts were purified with Promega M13 Wizard kits. The final product was mixed 1:1 with a mixture of 6 M GuSCN, 100 mM EDTA and 200 μg/mL herring sperm DNA and stored at 4° C.
The capture DNA plasmid (HSV UL13 region in pUC) was linearized by cutting with Xba I, denatured for 15 min at 95° C. and diluted immediately into Reacti-Bind DNA Coating Solution (Pierce, 17250, diluted 1:1 with TE buffer, pH 8) at 1 ng/μL 75 μL/well were added to Corning (#3922 or 9690) white 96-well plates and incubated at room temperature for at least 4 hrs before washing twice with 300 μL/well 0.2×SSC/0.05% Tween-20 (SSC/T buffer). The plates were then incubated overnight at room temperature with 150 μL/well 0.2 N NaOH, 1% IGEPAL and 10 μg/mL herring sperm DNA.
Twenty-seven (27) μL of cell lysate was combined with 45 μL of hybridization solution (final concentration:3M GuSCN, 50 mM EDTA, 100 μg/ml salmon sperm DNA, 5× Denhardt's solution, 0.25×APE, and 5 ng of the digoxigenin-labeled detection probe). APE is 1.5 M NH4-acetate, 0.15 M NH4H2 phosphate, and 5 mM EDTA adjusted to pH 6.0. Mineral oil (50 μL) was added to prevent evaporation. The hybridization plates were incubated at 95° C. for 10 minutes to denature the DNA, then incubated at 42° C. overnight. The wells were washed 6× with 300 μL/well SSC/T buffer then incubated with 75 μL/well anti-digoxigenin-HRP-conjugated antibody (Boehringer Mannheim 1207733, 1:5000 in TE) for 30 min at room temperature. The wells were washed 6× with 300 μL/well with PBS/0.05% Tween-20 before 75 μL/well SuperSignal LBA substrate (Pierce) was added. The plates were incubated at room temperature for 30 minutes and chemiluminescence was measured in a Wallac Victor reader.
The following results were obtained for HSV-1.

Q: With `[H]/N=C(/Nc1cc(Cl)cc2c(-c3ccnc(NC4CCCC4)n3)c(-c3ccc(F)cc3)nn12)NC1CCCC1` [Example 26, N-[5-Chloro-3-[2-(cyclopentylamino)pyrimidin-4-yl]-2-(4-fluorophenyl)pyrazolo[1,5-a]pyridin-7-yl]-N′-cyclopentylguanidine hydrochloride] as the compound, how does the pIC50 read?
A: 6.59

same assay, conditions: Human alphaherpesvirus 1; HSV-1 (MOI=0.001) in Vero 76 cells, 40–48 hours incubation, HSV DNA hybridization chemiluminescence readout; read-out: IC50

Q: With `COc1cc(NC2CCCC2)n2nc(-c3ccc(F)cc3)c(-c3ccnc(NC4CCCC4)n3)c2c1` [Example 45, N-Cyclopentyl-3-[2-(cyclopentylamino)-4-pyrimidinyl]-2-(4-fluorophenyl)-5-methoxypyrazolo[1,5-a]pyridin-7-amine] as the compound, how does the pIC50 read?
A: 6.82

Q: With `Cc1cccc(-c2nn3c(NC4CCCC4)cc(Cl)cc3c2-c2ccnc(NC3CC3)n2)c1` [Example 21, 5-Chloro-N-cyclopentyl-3-[2-(cyclopropylamino)pyrimidin-4-yl]-2-(3-methylphenyl)pyrazolo[1,5-a]pyridin-7-amine] as the compound, how does the pIC50 read?
A: 6.22

Q: With `Oc1ccc(-c2nn3c(NC4CC4)cc(Cl)cc3c2-c2ccnc(NC3CCCC3)n2)cc1` [Example 31, 4-[5-Chloro-3-[2-(cyclopentylamino)-4-pyrimidinyl]-7-(cyclopropylamino)pyrazolo[1,5-a]pyridin-2-yl]phenol] as the compound, how does the pIC50 read?
A: 5.82

Q: With `COc1ccc(-c2nn3c(NC4CC4)cc(Cl)cc3c2-c2ccnc(NC3CCCC3)n2)cc1` [Example 30, N-{4-[5-Chloro-7-(cyclopropylamino)-2-(4-methoxyphenyl)pyrazolo[1,5-a]pyridin-3-yl]-2-pyrimidinyl}-N-cyclopentylamine] as the compound, how does the pIC50 read?
A: 6.48

Q: With `Fc1ccc(-c2nn3c(NC4CCCC4)c(C(F)(F)F)ccc3c2-c2ccnc(N3CCCC3)n2)cc1` [Example 1, N-Cyclopentyl-2-(4-fluorophenyl)-3-[2-(1-pyrrolidinyl)-4-pyrimidinyl)-6-(trifluoromethyl)pyrazolo[1,5-a]pyridin-7-amine] as the compound, how does the pIC50 read?
A: 5.28

Q: With `Oc1ccc(-c2nn3c(NC4CCCC4)cc(Cl)cc3c2-c2ccnc(NC3CC3)n2)cc1` [Example 39, 4-{5-Chloro-7-(cyclopentylamino)-3-[2-(cyclopropylamino)-4-pyrimidinyl]pyrazolo[1,5-a]pyridin-2-yl}phenol] as the compound, how does the pIC50 read?
A: 5.70

Q: With `Clc1cc(NC2CCCC2)n2nc(-c3ccc(OCC4CC4)cc3)c(-c3ccnc(NC4CCCC4)n3)c2c1` [Example 34, 5-Chloro-3-[2-(cyclopentylamino)-4-pyrimidinyl]-N-cyclopentyl-2-[4-(cyclopropylmethoxy)phenyl]pyrazolo[1,5-a]pyridin-7-amine] as the compound, how does the pIC50 read?
A: 6.92

Q: With `COc1ccc(-c2nn3c(NC4CCCC4)cc(Cl)cc3c2-c2ccnc(NC3CCCC3)n2)cc1` [Example 18, N-{4-[5-Chloro-7-(cyclopentylamino)-2-(4-methoxyphenyl)pyrazolo-[1,5-a]pyridin-3-yl]-2-pyrimidinyl}-N-cyclopentylamine] as the compound, how does the pIC50 read?
A: 6.60

Q: With `O=C(NCCCn1ccnc1)c1ccc2c(-c3ccnc(NC4CCCC4)n3)c(-c3ccc(F)cc3)nn2c1NC1CCCC1` [Example 9, 7-(Cyclopentylamino)-3-[2-(cyclopentylamino)-4-pyrimidinyl]-2-(4-fluorophenyl)-N-[3-(1H-imidazol-1-yl)propyl]pyrazolo[1,5-a]pyridine-6-carboxamide] as the compound, how does the pIC50 read?
A: 6.30

Q: With `Clc1cc(NC2CCCC2)n2nc(-c3ccc(OCC4CC4)cc3)c(-c3ccnc(NC4CC4)n3)c2c1` [Example 40, N-(4-{5-Chloro-7-(cyclopentylamino)-2-[4-(cyclopropyl-methoxy)phenyl]pyrazolo[1,5-a]pyridin-3-yl}-2-pyrimidinyl)-N-cyclopropylamine] as the compound, how does the pIC50 read?
A: 5.89

Q: With `Clc1cccc(-c2nn3c(NC4CCCC4)cc(Cl)cc3c2-c2ccnc(NC3CCCC3)n2)c1` [Example 29, N-{4-[5-chloro-2-(3-chlorophenyl)-7-(cyclopentylamino)pyrazolo[1,5-a]pyridin-3-yl]-2-pyrimidinyl}-N-cyclopentylamine] as the compound, how does the pIC50 read?
A: 6.46

Q: With `CN(C)C(=O)c1ccc2c(-c3ccnc(NC4CCCC4)n3)c(-c3ccc(F)cc3)nn2c1NC1CCCC1` [Example 6, 7-(Cyclopentylamino)-3-[2-(cyclopentylamino)-4-pyrimidinyl]-2-(4-fluorophenyl)-N,N-dimethylpyrazolo[1,5-a]pyridine-6-carboxamide] as the compound, how does the pIC50 read?
A: 5.40

Q: With `CC(C)Nc1cc(Cl)cc2c(-c3ccnc(NC4CCCC4)n3)c(-c3ccc(F)cc3)nn12` [Example 15, 5-Chloro-3-[2-(cyclopentylamino)-4-pyrimidinyl]-2-(4-fluorophenyl)-N-isopropylpyrazolo[1,5-a]pyridin-7-amine] as the compound, how does the pIC50 read?
A: 5.84

Q: With `Fc1ccc(-c2nn3c(NC4CCCC4)c(Br)cc(Br)c3c2-c2nc(NC3CCCC3)ncc2Br)cc1` [Example 43, 4,6-Dibromo-3-[5-bromo-2-(cyclopentylamino)pyrimidin-4-yl]-N-cyclopentyl-2-(4-fluorophenyl)pyrazolo[1,5-a]pyridin-7-amine] as the compound, how does the pIC50 read?
A: < 4.40

Q: With `Fc1ccc(-c2nn3c(NC4CCCC4)c(Br)cc(Br)c3c2-c2ccnc(NC3CCCC3)n2)cc1` [Example 42, 4,6-Dibromo-N-cyclopentyl-3-[2-(cyclopentylamino)pyrimidin-4-yl]-2-(4-fluorophenyl)pyrazolo[1,5-a]pyridin-7-amine] as the compound, how does the pIC50 read?
A: 4.70

Q: With `Fc1ccc(-c2nn3c(NC4CCCC4)cc(Cl)cc3c2-c2ccnc(NC3CCCC3)n2)cc1` [Example 13, N-{4-[5-Chloro-7-(cyclopentylamino)-2-(4-fluorophenyl)pyrazolo[1,5-a]pyridin-3-yl]-2-pyrimidinyl}-N-cyclopentylamine] as the compound, how does the pIC50 read?
A: 6.77

Q: With `COc1ccc(-c2nn3c(NC4CCCC4)cc(Cl)cc3c2-c2ccnc(SC)n2)cc1` [Example 36, N-{5-Chloro-2-(4-methoxyphenyl)-3-[2-(methylsulfanyl)-4-pyrimidinyl]pyrazolo[1,5-a]pyridin-7-yl}-N-cyclopentylamine] as the compound, how does the pIC50 read?
A: 4.66

Q: With `Fc1ccc(-c2nn3c(Cl)cc(Cl)cc3c2-c2ccnc(NC3CCCC3)n2)cc1` [Example 12, N-Cyclopentyl-4-[5,7-dichloro-2-(4-fluorophenyl)pyrazolo[1,5-a]pyridin-3-yl]-2-pyrimidinamine] as the compound, how does the pIC50 read?
A: 5.15

Q: With `Cc1cccc(-c2nn3c(NC4CCCC4)cc(Cl)cc3c2-c2ccnc(NC3CCCC3)n2)c1` [Example 19, 5-Chloro-N-cyclopentyl-3-[2-(cyclopentylamino)pyrimidin-4-yl]-2-(3-methylphenyl)pyrazolo[1,5-a]pyridin-7-amine] as the compound, how does the pIC50 read?
A: 6.70

Q: With `CCOC(=O)c1ccc2c(-c3ccnc(NC4CCCC4)n3)c(-c3ccc(F)cc3)nn2c1NC1CCCC1` [Example 3, Ethyl 7-(cyclopentylamino)-3-[2-(cyclopentylamino)-4-pyrimidinyl]-2-(4-fluorophenyl)pyrazolo[1,5-a]pyridine-6-carboxylate] as the compound, how does the pIC50 read?
A: 5.20

Q: With `COc1ccc(-c2nn3c(Cl)cc(Cl)cc3c2-c2ccnc(SC)n2)cc1` [Example 35, 5,7-dichloro-2-(4-methoxyphenyl)-3-[2-(methylthio)pyrimidin-4-yl]pyrazolo[1,5-a]pyridine] as the compound, how does the pIC50 read?
A: < 4.40

Q: With `Fc1ccc(-c2nn3c(NC4CCCC4)cc(NC4CCCC4)cc3c2-c2ccnc(NC3CCCC3)n2)cc1` [Example 14, N^5,N^7-Dicyclopentyl-3-[2-(cyclopentylamino)-4-pyrimidinyl]-2-(4-fluorophenyl)pyrazolo[1,5-a]pyridine-5,7-diamine] as the compound, how does the pIC50 read?
A: 6.62

tested on: not given; test: not given; settings: not given

Q: Which melting point does the source give for `COc1cc(NC2CCCC2)n2nc(-c3ccc(F)cc3)c(-c3ccnc(NC4CCCC4)n3)c2c1` [Example 45, N-Cyclopentyl-3-[2-(cyclopentylamino)-4-pyrimidinyl]-2-(4-fluorophenyl)-5-methoxypyrazolo[1,5-a]pyridin-7-amine] here?
A: 167 to 169 °C
